Source: ChEMBL document CHEMBL3046783, “Synthesis of pyrimidine and condensed pyrimidine derivatives and their evaluation for anti-inflammatory activity” (2012)

The molecules below were run on Rattus norvegicus (assay: Anti-inflammatory activity in Rattus norvegicus albino (rat) assessed as inhibition of carrageenan-induced paw edema at 50 mg/kg, po administered 30 min before carrageenan challenge measured after 1 to 3 hr by plethysmometer analysis).
Assay type: functional

Structure (SMILES)	inhibition in vivo at 50 mg/kg [%]
CC1(C)CC(C)(O)N(CCN2CCCC2)C(=S)N1 (stereo not given)	8
CC1CC(O)N(CC2CCCO2)C(=S)N1 (stereo not given)	18
CC1=CC(C)(C)NC(=S)N1c1cc(C#N)ccc1N	32
CC1(C)CC2(C)Nc3ccc(C#N)cc3N2C(=S)N1 (stereo not given)	39
CC1(C)CC2(C)Nc3ccc(Br)cc3N2C(=S)N1 (stereo not given)	24
CC1(C)CC(C)(O)N(CCN2CCOCC2)C(=S)N1 (stereo not given)	35
CC1CC(O)N(CCN2CCCCC2)C(=S)N1 (stereo not given)	29
CC1=CC(C)(C)NC(=S)N1Cc1ccncc1	25
CC1=CC(C)(C)NC(=S)N1CCc1c[nH]c2ccccc12	30
CC1=CC(C)(C)NC(=S)N1CC1CCCO1 (stereo not given)	18
CC1=CC(C)(C)NC(=S)N1c1cc(C)ccc1O	27
CC1CC(O)N(Cc2ccncc2)C(=S)N1 (stereo not given)	30
Cc1cccc2c1N1C(=S)NC(C)CC1N2 (stereo not given)	0
CC1(C)CC(C)(O)N(Cc2ccncc2)C(=S)N1 (stereo not given)	27
CC1CC(O)N(CCN2CCOCC2)C(=S)N1 (stereo not given)	38
CC1C=CN(CCc2c[nH]c3ccccc23)C(=S)N1 (stereo not given)	25
CC1=CC(C)(C)NC(=S)N1c1cc(Br)ccc1N	31
CC1CC(O)N(CCN2CCCC2)C(=S)N1 (stereo not given)	30
CC(C)Cc1ccc(C(C)C(=O)O)cc1 (stereo not given) [IBUPROFEN]	39
CC1CC2Nc3ccc(Br)cc3N2C(=S)N1 (stereo not given)	27
